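A five-concentration, 48-hour dose response in 96-well plates underlies each endpoint, interpolated linearly between surrounding concentrations. Abbreviation: GI50, concentration required for 50% inhibition of growth. The concentration for full growth arrest is given as TGI.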
Assays:
Assay in all cases: NCI anticancer screen, dose series, 48 h
[1] = system: 786-0 renal
[2] = system: A498 renal
[3] = system: A549 NSCLC
[4] = system: ACHN renal
[5] = system: BT-549 breast
[6] = system: CCRF-CEM leukemia
[7] = system: COLO 205 colon
[8] = system: DU-145 prostate
[9] = system: EKVX NSCLC
[10] = system: HCC-2998 colon
[11] = system: HCT-116 colon
[12] = system: HCT-15 colon
[13] = system: HL-60(TB) leukemia
[14] = system: HOP-62 NSCLC
[15] = system: HOP-92 NSCLC
[16] = system: HS 578T breast
[17] = system: HT29 colon
[18] = system: IGROV1 ovarian
[19] = system: K-562 leukemia
[20] = system: KM12 colon
[21] = system: LOX IMVI melanoma
[22] = system: MALME-3M melanoma
[23] = system: MCF7 breast
[24] = system: MDA-MB-231 breast
[25] = system: MDA-MB-435
[26] = system: MOLT-4 leukemia
[27] = system: NCI-H226 lung
[28] = system: NCI-H23 lung
[29] = system: NCI-H460 lung
[30] = system: NCI-H522 lung
[31] = system: NCI/ADR-RES ovarian
[32] = system: OVCAR-3 ovarian
[33] = system: OVCAR-4 ovarian
[34] = system: OVCAR-5 ovarian
[35] = system: OVCAR-8 ovarian
[36] = system: PC-3 prostate
[37] = system: RPMI-8226 leukemia
[38] = system: RXF 393 renal
[39] = system: SF-268 CNS
[40] = system: SF-295 CNS
[41] = system: SF-539 CNS
[42] = system: SK-MEL-2 melanoma
[43] = system: SK-MEL-28 melanoma
[44] = system: SK-MEL-5 melanoma
[45] = system: SK-OV-3 ovarian
[46] = system: SN12C renal
[47] = system: SNB-19 CNS
[48] = system: SNB-75 CNS
[49] = system: SR leukemia
[50] = system: SW-620 colon
[51] = system: T-47D breast
[52] = system: TK-10 renal
[53] = system: U251 CNS
[54] = system: UACC-257 melanoma
[55] = system: UACC-62 melanoma
[56] = system: UO-31 renal

Cc1ccc(-c2cc(C(=O)N3N=C(c4ccc(N)cc4)CC3c3ccc(Cl)cc3)c3ccccc3n2)cc1 (configuration not stated)
GI50 [1]: 4.22 µM | TGI [1]: > 100 µM | GI50 [2]: 1.64 µM | TGI [2]: 6.5 µM | GI50 [3]: 4.79 µM | TGI [3]: > 100 µM | GI50 [4]: 4.19 µM | TGI [4]: > 100 µM | GI50 [5]: 3.92 µM | TGI [5]: > 100 µM | GI50 [6]: 4.53 µM | TGI [6]: > 100 µM | GI50 [7]: 2.8 µM | TGI [7]: 9.48 µM | GI50 [8]: 3.68 µM | TGI [8]: > 100 µM | GI50 [9]: 3.99 µM | TGI [9]: > 100 µM | GI50 [10]: 4.28 µM | TGI [10]: > 100 µM | GI50 [11]: 3.18 µM | TGI [11]: > 100 µM | GI50 [12]: 3.33 µM | TGI [12]: > 100 µM | GI50 [13]: 3.49 µM | TGI [13]: > 100 µM | GI50 [14]: 4.62 µM | TGI [14]: > 100 µM | GI50 [15]: 4.1 µM | TGI [15]: 92.3 µM | GI50 [16]: 4.68 µM | TGI [16]: > 100 µM | GI50 [17]: 3.35 µM | TGI [17]: > 100 µM | GI50 [18]: 6.48 µM | TGI [18]: > 100 µM | GI50 [19]: 3.09 µM | TGI [19]: > 100 µM | GI50 [20]: 3.46 µM | TGI [20]: > 100 µM | GI50 [21]: 4 µM | TGI [21]: > 100 µM | GI50 [22]: > 100 µM | TGI [22]: > 100 µM | GI50 [23]: 2.53 µM | TGI [23]: > 100 µM | GI50 [24]: 3.94 µM | TGI [24]: 92.2 µM | GI50 [25]: 1 µM | TGI [25]: 3.66 µM | GI50 [26]: 3.23 µM | TGI [26]: > 100 µM | GI50 [27]: 6.47 µM | TGI [27]: > 100 µM | GI50 [28]: 5.02 µM | TGI [28]: > 100 µM | GI50 [29]: 3.51 µM | TGI [29]: > 100 µM | GI50 [30]: 0.622 µM | TGI [30]: 4.21 µM | GI50 [31]: 2.54 µM | TGI [31]: > 100 µM | GI50 [32]: 2.98 µM | TGI [32]: 36.6 µM | GI50 [33]: 4.71 µM | TGI [33]: > 100 µM | GI50 [34]: 8.43 µM | TGI [34]: > 100 µM | GI50 [35]: 5.25 µM | TGI [35]: > 100 µM | GI50 [36]: 3.4 µM | TGI [36]: > 100 µM | GI50 [37]: 4.1 µM | TGI [37]: > 100 µM | GI50 [38]: 1.63 µM | TGI [38]: 7.06 µM | GI50 [39]: 4.09 µM | TGI [39]: > 100 µM | GI50 [40]: 3.13 µM | TGI [40]: > 100 µM | GI50 [41]: 2.43 µM | TGI [41]: 8.1 µM | GI50 [42]: 3.81 µM | TGI [42]: > 100 µM | GI50 [43]: 6.23 µM | TGI [43]: > 100 µM | GI50 [44]: 2.5 µM | TGI [44]: > 100 µM | GI50 [45]: 4.94 µM | TGI [45]: > 100 µM | GI50 [46]: 6.84 µM | TGI [46]: > 100 µM | GI50 [47]: 6.51 µM | TGI [47]: > 100 µM | GI50 [48]: 1.41 µM | TGI [48]: 6.68 µM | GI50 [49]: 3.29 µM | TGI [49]: > 100 µM | GI50 [50]: 4.24 µM | TGI [50]: > 100 µM | GI50 [51]: 2.73 µM | TGI [51]: > 100 µM | GI50 [52]: 8.51 µM | TGI [52]: > 100 µM | GI50 [53]: 4.51 µM | TGI [53]: > 100 µM | GI50 [54]: 33.7 µM | TGI [54]: > 100 µM | GI50 [55]: 2.06 µM | TGI [55]: > 100 µM | GI50 [56]: 2.2 µM | TGI [56]: > 100 µM
